Laboratory results reported in patent US8524778B2, “Biphenyl-4-yl-sulfonic acid arylamides and their use as therapeutic agents” (PIMCO 2664 Limited, priority 2007, dated 2013).
Entries after “also recorded” stand apart in the source; their conditions may differ. One block for each compound: values may come before it.

What was measured:
[1] = In vivo pharmacokinetics: serum levels after oral dosage (HPLC/UV); conditions: rat; for oral absorption (blood serum levels after oral administration): oral 10 mg/kg in corn oil, over 60 minutes, FIG. 1; for metabolic stability: oral 10 mg/kg, in vivo pharmacokinetics assay
Protocol: Absorption and metabolic stability were studied using an in vivo pharmacokinetics assay. Drug levels assessed using HPLC/UV.
Following overnight starvation, male Wistar rats (250 g) were given a bolus gavage of 500 μL of a solution of test compound in corn oil (5 mg/mL). Blood samples (1 mL, whole blood) were taken at various time intervals and the serum collected following centrifugation. Samples were frozen until required for analysis.
Ethyl acetate (4 mL) was added to the defrosted serum and the samples mixed for 20 minutes. Following centrifugation, the ethyl acetate layer was collected and evaporated under a stream of nitrogen. The residue was reconstituted in mobile phase and 20 μL injected onto the chromatogram.
Standard calibration curves were prepared for each of the test compounds and were linear in the range of 1 ng/mL to 250 ng/mL.
Mobile phase: 60% 25 mM ammonium acetate, pH 4; 40% acetonitrile.
Serum levels of the following compounds, following oral dosage (10 mg/kg) over the course of 60 minutes, were investigated in vivo in rats using an HPLC/UV detection system, as described above: […]

[2] = tested on: mouse collagen-induced arthritis model; test: Collagen-induced arthritis (CIA) model, joint inflammation scoring; format: in vivo; conditions: 10 mg/kg/day i.p.
Protocol: Collagen-induced arthritis (CIA) was induced in 8-week old male DBA/1 mice, by intradermal injection of 100 μL of chicken collagen type II (2 mg/mL) suspended in complete Freund's adjuvant supplemented with 2 mg/mL devitalised M. Tuberculosis into the base of the tail. This will lead to joint inflammation in >80% of the animals within 4 weeks. Treatment with ABD455 (10 mg/kg/day, delivered in corn oil) was started when joint inflammation became apparent in the first animals (in this experiment 15 days after injection), and the experiment terminated 3 weeks later. For each animal the scores for all four joints were added (maximal score=12).

[3] = tested on: TNFα-stimulated phosphorylation of IκB; test: TNFα-stimulated phosphorylation of IκB in mouse macrophages (Western blot); format: cell-based; conditions: 10 μM and 25 μM, 1 hour pre-treatment, 5 minutes TNFα, FIG. 4
Protocol: (§1) Bone marrow cells were flushed out of the long bones of 3-5 month old mice, and cultured in 10 cm tissue culture dishes for three days in α-MEM supplemented with 10% FCS, antibiotics, and recombinant mouse M-CSF (100 ng/mL). The cells were then harvested by trypsinisation, and re-plated in 6 well-plates (3×10^5 cells per well) and cultured in medium as described above for 2 more days. Cells were then serum starved and pre-treated with test compounds for 1 hour, followed by 5 minutes stimulation with TNFα. After stimulation, the cells were washed in PBS and homogenized in lysis buffer containing PBS, 0.1% (w/v) sodium dodecyl sulphate (SDS), 0.5% (w/v) sodium deoxycholate, and 2% (v/v) protease inhibitor cocktail. The cell lysates were centrifuged as 12,000 g for 10 minutes at 4° C., and the supernatant was collected and protein concentration determined using a Bio-Rad protein assay kit. Aliquots of the cell lysate containing 50 μg protein per lane were run on a 10% denaturing acrylamide gel and blotted onto a nylon membrane. The membranes were washed in Tris buffered saline (TBS) and incubated overnight at 4° C. with the relevant primary antibodies (phospho-IκB and phospho-p42/44 Erk, Cell Signalling Technology, 1:1000 dilution). […]

[4] = tested on: TNFα-stimulated phosphorylation of p42/44 Erk; test: TNFα-stimulated phosphorylation of p42/44 Erk in mouse macrophages (Western blot); format: cell-based; conditions: 10 μM and 25 μM, 1 hour pre-treatment, 5 minutes TNFα, FIG. 5
Protocol: as §1

[5] = tested on: macrophage cell line J774; test: Alamar Blue macrophage J774 viability assay; format: cell-based; conditions: Mus musculus; J774 cells, 72 hours with compound, n=5; Biological Study 1 table
Protocol: The assays are based on the survival of the J774 macrophage cell line; macrophages are closely related to osteoclasts.
J774 cells were plated at 10^4 cells per well in 100 μL αMEM (α Modified Eagle Medium) in 96-well plates and grown overnight. The next day, test compounds were added to the cultures, and cultures were continued for another 72 hours. At the end of the culture period, cell survival was determined using an Alamar Blue assay as previously described (see, e.g., Nociari et al., 1998).
Alamar Blue is an oxidation-reduction sensitive indicator. The dye itself is in the oxidised state, which is blue and non-fluorescent. […] Thus the transformation from oxidised form to reduced form can be measured by fluorimetric or colourimetric means. For fluorescence measurements, 530-560 nm excitation and 590 nm emission wavelengths are typically used. For colourimetric measurements, absorbance is measured at 570 nm (reduced form) and 600 nm (oxidised form) are typically used. A simple calculation is performed to determine the relative quantities of the two species. […]
Briefly, Alamar Blue (Biosource International) was added undiluted to the each well (1:10 v/v, 10 μL). The plate was incubated at 37° C. for 3-4 hours and the fluorescence was measured at 590 nm, with a 25 nm bandwidth. […]

Compound: Cc1cc(S(=O)(=O)NCCCCO)ccc1-c1ccc(F)cc1F [ABD295, 2′,4′-difluoro-2-methyl-biphenyl-4-sulfonic acid (4-hydroxy-butyl)-amide, reference compound]
oral absorption (blood serum levels after oral administration) [1]: not absorbed | sum of the joint inflammation scores (total joint score) of study group ([2]; after 22 days, n=8, untreated group 29, FIG. 3): 17

Compound: CCc1cc(-c2ccc(F)cc2F)ccc1S(=O)(=O)NCCCCO [ABD385, 2′,4′-difluoro-3-ethyl-biphenyl-4-sulfonic acid (4-hydroxybutyl)-amide, reference compound]
oral absorption (blood serum levels after oral administration) [1]: not absorbed

Compound: O=[N+]([O-])c1ccccc1-c1ccc(S(=O)(=O)Nc2cccc(CO)c2)cc1 [ABD514, 2′-Nitro-biphenyl-4-sulfonic acid (3-hydroxymethyl-phenyl)-amide]
IC50 [5]: > 4000 nM

Compound: O=S(=O)(Nc1ccc(CO)c(CO)c1)c1ccc(-c2ccc(Cl)cc2Cl)cc1 [ABD550, N-(3,4-Bis(hydroxymethyl)phenyl)-2′,4′-dichlorobiphenyl-4-sulfonamide]
IC50 [5]: 1200 ± 500 nM

Now from value to compound, other results behind:

oral absorption (blood serum levels after oral administration) [1]: not absorbed
Compound: O=S(=O)(NCCCCO)c1ccc(-c2ccc(F)cc2)cc1 [ABD200, 4′-fluoro-biphenyl-4-sulfonic acid (4-hydroxybutyl)-amide, reference compound]

metabolic stability [1]: good degree of metabolic stability
Compound: O=S(=O)(Nc1cccc(CO)c1)c1ccc(-c2ccc(Cl)cc2Cl)cc1 [ABD455, 2′,4′-Dichloro-biphenyl-4-sulfonic acid (3-hydroxymethyl-phenyl)-amide]
effect on TNFα-stimulated phosphorylation of IκB [3]: completely block | effect on collagen-induced arthritis (in words) ([2]; 10 mg/kg/day): fully reverse the effects of collagen-induced arthritis; also recorded: much more effective in reversing the effects of collagen-induced arthritis than ABD295 | sum of the joint inflammation scores (total joint score) of study group ([2]; after 21 days, n=10, untreated group 47, FIG. 2): 3 | effect on TNFα-stimulated phosphorylation of p42/44 Erk [4]: completely block

metabolic stability [1]: good degree of metabolic stability
Compound: O=S(=O)(Nc1cccc(CO)c1)c1ccc(-c2ccc(F)cc2F)cc1 [ABD456, 2′,4′-Difluoro-biphenyl-4-sulfonic acid (3-hydroxymethyl-phenyl)-amide]
effect on TNFα-stimulated phosphorylation of IκB [3]: completely block | effect on TNFα-stimulated phosphorylation of p42/44 Erk [4]: completely block
